Measured values as given in ChEMBL document CHEMBL1201862, “PubChem BioAssay data set” (2004).
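Test compounds were applied to cells in 96-well plates for 48 hours at 5 doses. GI50 is the concentration that inhibits growth by half.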 Calls of active or inactive are those of the source. No stated cut-off is given here; in the data, active = GI50 up to about 1.1 µM and inactive = higher.

What was measured:
Test in all cases: NCI tumour cell line growth inhibition, 48 h
HT-29 = tested on: HT-29
DU-145 = tested on: DU-145
SW-620 = tested on: SW-620
NCI-H460 = tested on: NCI-H460
HOP-62 = tested on: HOP-62
786-0 = tested on: 786-0
CCRF-CEM = tested on: CCRF-CEM
A498 = tested on: A498
LOX IMVI = tested on: LOX IMVI
HOP-92 = tested on: HOP-92
OVCAR-5 = tested on: OVCAR-5
MDA-N = tested on: MDA-N
M14 = tested on: M14
MDA-MB-231 = tested on: MDA-MB-231
RPMI-8226 = tested on: RPMI-8226
SN12C = tested on: SN12C
U-251 = tested on: U-251
UO-31 = tested on: UO-31
SK-MEL-28 = tested on: SK-MEL-28
SF-539 = tested on: SF-539
BT-549 = tested on: BT-549
COLO 205 = tested on: COLO 205
PC-3 = tested on: PC-3
CAKI-1 = tested on: CAKI-1
SR = tested on: SR
UACC-257 = tested on: UACC-257
T47D = tested on: T47D
Malme-3M = tested on: Malme-3M
SK-MEL-2 = tested on: SK-MEL-2
MOLT-4 = tested on: MOLT-4
RXF 393 = tested on: RXF 393
SNB-75 = tested on: SNB-75
MCF7 = tested on: MCF7
KM12 = tested on: KM12
NCI/ADR-RES = tested on: NCI/ADR-RES
MDA-MB-435 = tested on: MDA-MB-435
ACHN = tested on: ACHN
SNB-19 = tested on: SNB-19
A549 = tested on: A549
NCI-H522 = tested on: NCI-H522
SK-MEL-5 = tested on: SK-MEL-5
HCT-116 = tested on: HCT-116
EKVX = tested on: EKVX
OVCAR-8 = tested on: OVCAR-8
NCI-H23 = tested on: NCI-H23
SK-OV-3 = tested on: SK-OV-3
HCT-15 = tested on: HCT-15
UACC-62 = tested on: UACC-62
SF-295 = tested on: SF-295
SF-268 = tested on: SF-268
OVCAR-3 = tested on: OVCAR-3
OVCAR-4 = tested on: OVCAR-4
HCC 2998 = tested on: HCC 2998
TK-10 = tested on: TK-10
Hs-578T = tested on: Hs-578T
NCI-H226 = tested on: NCI-H226
K562 = tested on: K562

SMILES: Cc1cc2c(O)c(c1)CN(CC(=O)O)Cc1cc(C)cc(c1O)CN(CC(=O)O)Cc1cc(C)cc(c1O)CN(CC(=O)O)C2
- GI50 (HT-29): > 100 µM (inactive)
- GI50 (DU-145): > 100 µM (inactive)
- GI50 (SW-620): > 100 µM (inactive)
- GI50 (NCI-H460): > 100 µM (inactive)
- GI50 (HOP-62): > 100 µM (inactive)
- GI50 (786-0): > 100 µM (inactive)
- GI50 (CCRF-CEM): > 100 µM (inactive)
- GI50 (A498): > 100 µM (inactive)
- GI50 (LOX IMVI): > 100 µM (inactive)
- GI50 (HOP-92): 64.4 µM (inactive)
- GI50 (OVCAR-5): > 100 µM (inactive)
- GI50 (MDA-N): > 100 µM (inactive)
- GI50 (M14): > 100 µM (inactive)
- GI50 (MDA-MB-231): > 100 µM (inactive)
- GI50 (RPMI-8226): > 100 µM (inactive)
- GI50 (SN12C): > 100 µM (inactive)
- GI50 (U-251): > 100 µM (inactive)
- GI50 (UO-31): > 100 µM (inactive)
- GI50 (SK-MEL-28): > 100 µM (inactive)
- GI50 (SF-539): > 100 µM (inactive)
- GI50 (BT-549): > 100 µM (inactive)
- GI50 (COLO 205): > 100 µM (inactive)
- GI50 (PC-3): > 100 µM (inactive)
- GI50 (CAKI-1): > 100 µM (inactive)
- GI50 (SR): > 100 µM (inactive)
- GI50 (UACC-257): > 100 µM (inactive)
- GI50 (T47D): > 100 µM (inactive)
- GI50 (Malme-3M): > 100 µM (inactive)
- GI50 (SK-MEL-2): > 100 µM (inactive)
- GI50 (MOLT-4): > 100 µM (inactive)
- GI50 (RXF 393): > 100 µM (inactive)
- GI50 (SNB-75): > 100 µM (inactive)
- GI50 (MCF7): > 100 µM (inactive)
- GI50 (KM12): > 100 µM (inactive)
- GI50 (NCI/ADR-RES): > 100 µM (inactive)
- GI50 (MDA-MB-435): > 100 µM (inactive)
- GI50 (ACHN): > 100 µM (inactive)
- GI50 (SNB-19): > 100 µM (inactive)
- GI50 (A549): > 100 µM (inactive)
- GI50 (NCI-H522): > 100 µM (inactive)
- GI50 (SK-MEL-5): > 100 µM (inactive)
- GI50 (HCT-116): > 100 µM (inactive)
- GI50 (EKVX): > 100 µM (inactive)
- GI50 (OVCAR-8): > 100 µM (inactive)
- GI50 (NCI-H23): > 100 µM (inactive)
- GI50 (SK-OV-3): > 100 µM (inactive)
- GI50 (HCT-15): > 100 µM
- GI50 (UACC-62): > 100 µM (inactive)
- GI50 (SF-295): > 100 µM (inactive)
- GI50 (SF-268): > 100 µM (inactive)
- GI50 (OVCAR-3): > 100 µM (inactive)
- GI50 (OVCAR-4): > 100 µM (inactive)
- GI50 (HCC 2998): > 100 µM (inactive)
- GI50 (TK-10): > 100 µM (inactive)
- GI50 (Hs-578T): > 100 µM (inactive)
- GI50 (NCI-H226): > 100 µM (inactive)
- GI50 (K562): > 100 µM (inactive)
